Among the data in PMC12334443, “Biochemical Characterization of a Novel, Glucose-Tolerant β-Glucosidase from Jiangella ureilytica KC603, and Determination of Resveratrol Production Capacity from Polydatin” (Applied Biochemistry and Biotechnology, 2025) are Glucose tolerance and Km values, retold here.

Format in all cases: biochemical
In assay [1] the target is T1, JurBglKC603 (Jiangella ureilytica, UniProt A0A4R4RWQ6, T2A).
T1 construct: gene E1212_03180; catalytic Glu165 and Glu356
T1 sequence (A0A4R4RWQ6 1-457 T2A): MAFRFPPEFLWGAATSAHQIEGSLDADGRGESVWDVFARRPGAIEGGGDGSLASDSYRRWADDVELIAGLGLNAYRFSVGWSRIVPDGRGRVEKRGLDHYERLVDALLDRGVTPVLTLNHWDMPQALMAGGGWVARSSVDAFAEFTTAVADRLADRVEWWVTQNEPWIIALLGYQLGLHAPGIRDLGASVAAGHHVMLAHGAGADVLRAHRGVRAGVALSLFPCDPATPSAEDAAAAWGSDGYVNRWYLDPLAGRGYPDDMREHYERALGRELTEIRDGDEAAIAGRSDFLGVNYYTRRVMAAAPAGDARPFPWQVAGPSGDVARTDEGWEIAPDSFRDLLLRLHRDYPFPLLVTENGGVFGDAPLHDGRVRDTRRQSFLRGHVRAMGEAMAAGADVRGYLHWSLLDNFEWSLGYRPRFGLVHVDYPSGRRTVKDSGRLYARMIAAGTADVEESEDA
Put plainly: pNPG hydrolysis with added glucose, relative activity. The note with it: 3 M; 4 mM pNPG, 50 mM sodium citrate pH 6, 35 °C; glucose is also the reaction product. An excerpt:
pNPG hydrolysis with added glucose, relative activity on JurBglKC603

Assay [2] concerns the target T1, JurBglKC603. Put plainly: pNP release at […] nm, Lineweaver-Burk. The note with it: 50 mM sodium citrate pH 6, 35 °C; substrate 0.1-7 mM; read-out: Kinetic parameters / Km.
In assay [3] the target is T1, JurBglKC603. The experiment in a line: glucose release by GOPOD assay, Lineweaver-Burk. The note with it: 50 mM sodium citrate pH 6, 40 °C, 1 h; substrate 0.2-1 mM. An excerpt:
glucose release by GOPOD assay, Lineweaver-Burk on JurBglKC603

For `OC[C@H]1OC(O)[C@H](O)[C@@H](O)[C@@H]1O` (stereo partly drawn) [glucose], the Glucose tolerance on JurBglKC603 [1] amounted to 58%.
On to `O=[N+]([O-])c1ccc(O[C@@H]2O[C@H](CO)[C@@H](O)[C@H](O)[C@H]2O)cc1` [pNPG, para-nitrophenyl β-D-glucopyranoside], for which the Km on JurBglKC603 [2] amounted to 440 µM.
For the compound `OC[C@H]1O[C@@H](Oc2cc(O)cc(/C=C/c3ccc(O)cc3)c2)[C@H](O)[C@@H](O)[C@@H]1O` [polydatin], the Km on JurBglKC603 [3] turned out to be 4600 µM.
